A short description of data set [1]: Half-life in dogs. As to conditions: dog, in vivo. In kind it is ADME, organism-based, Canis lupus familiaris.
Data set [2] can be described thus: Bioavailability in rat (Sprague-Dawley) (male) (dose 1 mg/kg i.v. and 3 mg/kg p.o.) measured from 0.3 to 6 hr. The class given is ADME, organism-based. As to conditions: in vivo, po.
Data set [3] addresses T1, Alpha-1D adrenergic receptor (Homo sapiens, UniProt P25100).
T1 sequence (P25100 whole entry): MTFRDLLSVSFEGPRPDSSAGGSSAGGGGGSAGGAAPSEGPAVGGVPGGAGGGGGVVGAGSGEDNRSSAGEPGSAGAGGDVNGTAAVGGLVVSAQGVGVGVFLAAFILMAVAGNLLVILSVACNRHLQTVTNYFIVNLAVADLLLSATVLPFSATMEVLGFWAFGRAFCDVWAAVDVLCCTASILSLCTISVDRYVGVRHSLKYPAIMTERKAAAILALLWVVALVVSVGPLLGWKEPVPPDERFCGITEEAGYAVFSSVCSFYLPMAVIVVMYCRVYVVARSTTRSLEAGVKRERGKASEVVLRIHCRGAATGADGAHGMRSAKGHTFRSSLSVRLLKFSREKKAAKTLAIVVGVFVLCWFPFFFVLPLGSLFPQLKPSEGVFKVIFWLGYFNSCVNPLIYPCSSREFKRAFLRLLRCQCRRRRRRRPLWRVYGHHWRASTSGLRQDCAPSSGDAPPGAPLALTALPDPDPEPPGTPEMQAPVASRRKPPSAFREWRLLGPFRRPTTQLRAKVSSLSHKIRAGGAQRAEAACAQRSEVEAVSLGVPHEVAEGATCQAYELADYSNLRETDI
As to the kind of experiment: In vitro binding affinity towards cloned human Alpha-1D adrenergic receptor.

The nature of data set [4]: Bioavailability in dog (Beagle) (male) (dose 3 mg/kg i.v. and 10 mg/kg p.o.) measured from 1 to 24 hr. The note with it: in vivo, po. The class given is ADME, organism-based, Canis lupus familiaris.
Data set [5] has as its target T2, Alpha-1B adrenergic receptor (Homo sapiens, UniProt P35368).
T2 sequence (P35368 whole entry): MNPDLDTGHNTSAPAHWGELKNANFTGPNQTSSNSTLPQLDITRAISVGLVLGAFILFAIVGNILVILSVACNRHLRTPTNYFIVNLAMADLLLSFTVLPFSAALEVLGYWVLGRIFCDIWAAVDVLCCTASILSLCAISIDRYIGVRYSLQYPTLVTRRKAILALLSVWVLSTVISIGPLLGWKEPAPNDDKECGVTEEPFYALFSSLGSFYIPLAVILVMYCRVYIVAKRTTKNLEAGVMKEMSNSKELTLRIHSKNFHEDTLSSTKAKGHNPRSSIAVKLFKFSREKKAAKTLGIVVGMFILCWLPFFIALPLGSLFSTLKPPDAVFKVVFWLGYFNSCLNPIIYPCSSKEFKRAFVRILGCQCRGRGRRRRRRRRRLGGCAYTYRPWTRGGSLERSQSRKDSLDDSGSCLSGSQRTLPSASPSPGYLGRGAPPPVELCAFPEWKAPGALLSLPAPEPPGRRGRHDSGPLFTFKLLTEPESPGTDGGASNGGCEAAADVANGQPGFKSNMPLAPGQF
As to the kind of experiment: In vitro binding affinity towards cloned human Alpha-1B adrenergic receptor.

In data set [6] the target is T3, Alpha-1A adrenergic receptor (Homo sapiens, UniProt P35348).
T3 sequence (P35348 whole entry): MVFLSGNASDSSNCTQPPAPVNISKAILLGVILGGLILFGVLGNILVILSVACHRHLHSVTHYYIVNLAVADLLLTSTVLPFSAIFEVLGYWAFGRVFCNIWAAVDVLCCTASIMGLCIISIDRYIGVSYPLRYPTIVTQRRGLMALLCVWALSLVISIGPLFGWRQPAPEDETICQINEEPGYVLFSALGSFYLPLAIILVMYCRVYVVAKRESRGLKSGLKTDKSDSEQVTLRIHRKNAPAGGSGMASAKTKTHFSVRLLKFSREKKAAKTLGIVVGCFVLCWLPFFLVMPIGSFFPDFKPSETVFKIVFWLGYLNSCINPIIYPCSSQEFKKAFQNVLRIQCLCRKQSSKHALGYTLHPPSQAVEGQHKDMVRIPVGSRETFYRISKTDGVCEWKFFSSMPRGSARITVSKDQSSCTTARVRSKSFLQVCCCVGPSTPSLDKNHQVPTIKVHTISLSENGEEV
As to the kind of experiment: In vitro binding affinity towards cloned human Alpha-1A adrenergic receptor.

Data set [7] is described as follows: Half-life in rats. The note with it: rat, in vivo. The class given is ADME, organism-based.

Structures are written as SMILES.

With `Cc1ccc(C2(c3ccc(C)cc3)CC(=O)N(CCCN3CCC(C#N)(c4ccccc4C)CC3)C2=O)cc1`, the figures for the half-life in data set [1] and in data set [7] were 78 min and 150 min, respectively. Further, the bioavailability came to 18% in data set [2] and 8% in data set [4]. Also, the Ki in data set [3] turned out to be 1500 nM; in data set [5], 1900 nM; in data set [6], 1.7 nM.

In the case of `Cc1ccc(C2(c3ccc(C)cc3)OC(=O)N(CCCN3CCC(C#N)(c4ccccc4C)CC3)C2=O)cc1`, the Ki in data set [3] is > 5000 nM; in data set [5], > 2000 nM; in data set [6], 77 nM.

Turning to `COC(=O)C1(c2ccccc2)CCN(CCCNC(=O)C(c2ccc(C)cc2)c2ccc(C)cc2)CC1`, the Ki in data set [3] was 975 nM; in data set [5] it was 170 nM; in data set [6], 17 nM.

Consider `Cc1ccc(C(O)(C(=O)NCCCN2CCC(C#N)(c3ccccc3C)CC2)c2ccc(C)cc2)cc1`, for which the bioavailability in data set [2] was < 1%. Also, the figures for the Ki in data set [3], in data set [5] and in data set [6] were 1500 nM, 570 nM and 2 nM, respectively. In data set [7], this compound had a half-life of 78 min.

As for `Cc1ccc(C2(c3ccc(C)cc3)CC(=S)N(CCCN3CCC(C#N)(c4ccccc4Cl)CC3)C2=O)cc1`, the Ki in data set [3] was > 5000 nM; in data set [5], > 2000 nM; in data set [6], 220 nM.

As to `Cc1ccc(C(O)(C(=O)NCCCN2CCC(C#N)(c3ccccc3)CC2)c2ccc(C)cc2)cc1`, the Ki in data set [3] is 4800 nM; in data set [5] it was 1800 nM; in data set [6] it was 5.7 nM.

Consider `Cc1ccc(C2(c3ccc(C)cc3)CC(=O)N(CCCN3CCC(C#N)(c4ccccc4Cl)CC3)C2=O)cc1`, for which the half-life in data set [1] is 102 min; in data set [7], 39.6 min. Moreover, the bioavailability in data set [2] worked out at 19%; in data set [4], 11%. The Ki stood at 220 nM in data set [3], 98 nM in data set [5] and 0.48 nM in data set [6].

Turning to `Cc1ccc(C2(c3ccc(C)cc3)CC(=O)N(CC(O)CN3CCC(C#N)(c4ccccc4C)CC3)C2=O)cc1` (centres undefined), the results for the Ki in data set [3], in data set [5] and in data set [6] were 4100 nM, 1500 nM and 9.7 nM, respectively.

As a reminder, the half-life is the time needed for the level to fall by half in the phase considered. Low values mean fast loss, high ones slow loss. The term bioavailability denotes the share of a dose that reaches the circulation, judged against a reference dose that is usually intravenous. A low value points to little systemic uptake. The Ki is the equilibrium dissociation constant of an inhibitor or competing ligand from its target. Low values mean tighter binding, high ones weaker binding.

The values are drawn from ChEMBL document CHEMBL1134805, “Cyclic imides as potent and selective alpha-1A adrenergic receptor antagonists” (Bioorg Med Chem Lett, 2001).
